Laboratory results as given in patent publication US20050101595A1, “N-containing cycloalkyl-substituted amino-thiazole derivatives and pharmaceutical compositions for inhibiting cell proliferation and methods for their use” (PFIZER INC., priority 2003, published 2005).
Structures can show the parent of a compound that is named as a salt. Where two headings read alike, the source gives them in different places. Each block holds one compound with its values, some of them ahead of it.

Legend:
CDK2/Cyclin A = CDK2/Cyclin A (Homo sapiens, UniProt P24941); assay: Inhibition of CDK2/Cyclin A Retinoblastoma Kinase Activity; type: biochemical; conditions: for Ki: apparent Ki, CDK2/proteolyzed cyclin A, Rb fragment substrate, 25 μM ATP; for CDK2 % Inhibition At 0.03 μM: Table 2
Outline: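 CDK2 (10 or 19 nM), insect-cell expressed, gel-filtration purified with truncated cyclin A; Rb fragment substrate; 25 μM ATP; 10 mM HEPES pH 7.4, 10 mM MgCl2; 30° C, 60 or 75 min; EDTA stop; phosphocellulose/nitrocellulose capture, phosphorimager. % inhibition vs DMSO control, no-enzyme background subtracted.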

HCT-116 cell line = assay: Inhibition of cell growth, tetrazolium salt (MTT) assay; type: cell-based; conditions: for IC50: Homo sapiens, HCT-116, 120 h, MTT, three to five days, read-out: HCT-116 IC50; for HCT-116 % Inhibition at 0.25 μM: 0.25 μM compound
Outline: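 MTT colorimetric viability: three-to-five-day compound exposure in 0.5% (v/v) DMSO at 37° C, MTT 0.2 mg/mL for the last 4 h, A540 compared with vehicle-treated cells.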

[1] = molecular target: human CDK4 and genetically truncated (1-264) cyclin D3 (Homo sapiens, UniProt P11802); assay: Inhibition of CDK4/Cyclin D Retinoblastoma Kinase Activity; type: biochemical; conditions: for Ki: apparent Ki, CDK4/truncated cyclin D3, Rb fragment substrate, 25 μM ATP
Outline: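 The enzyme complex (5 nM), expressed in co-infected insect cells, was incubated with recombinant Rb fragment, 25 μM radiolabelled ATP and 2% DMSO at 30 °C. Reactions were stopped with EDTA after 20 minutes, or 60 minutes for tight-binding inhibitors. Apparent Ki values came from competitive inhibition fits.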

[2] = 0.03 μM compound, Table 4, 0.03 µM
[3] = 0.1 μM compound, HCT-116, Table 4

human CDK4 and genetically truncated (1-264) cyclin D3, sequence (P11802 whole entry, the tested form may be a part): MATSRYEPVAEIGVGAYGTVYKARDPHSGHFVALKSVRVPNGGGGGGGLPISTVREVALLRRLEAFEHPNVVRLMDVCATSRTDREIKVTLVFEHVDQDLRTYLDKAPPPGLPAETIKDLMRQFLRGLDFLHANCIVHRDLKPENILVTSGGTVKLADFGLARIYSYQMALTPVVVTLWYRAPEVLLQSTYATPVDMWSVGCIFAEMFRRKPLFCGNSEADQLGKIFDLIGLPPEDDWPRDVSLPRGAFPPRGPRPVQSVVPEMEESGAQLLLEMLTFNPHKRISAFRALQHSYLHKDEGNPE
human CDK4 and genetically truncated (1-264) cyclin D3, sequence (P30281 1-264 partner): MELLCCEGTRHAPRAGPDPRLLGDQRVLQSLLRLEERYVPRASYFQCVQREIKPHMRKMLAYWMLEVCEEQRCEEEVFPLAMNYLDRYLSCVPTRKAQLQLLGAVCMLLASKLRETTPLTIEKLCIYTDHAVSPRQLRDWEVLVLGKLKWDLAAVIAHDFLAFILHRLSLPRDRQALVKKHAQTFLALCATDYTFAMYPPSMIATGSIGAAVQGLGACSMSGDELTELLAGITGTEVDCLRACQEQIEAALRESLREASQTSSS

CDK2 % Inhibition at 0.03 μM (CDK2/Cyclin A; at 0.03 μM): 14% | CDK4 % Inhibition at 0.03 μM ([1]; at 0.03 μM): 16%
SMILES: CN(C)c1ccc(C(=O)N2CCC(Nc3nc(N)c(C(=O)c4c(F)cccc4F)s3)CC2)cc1 [Example R79]
HCT-116 % Inhibition at 0.1 μM (HCT-116 cell line; HCT-116 cells, at 0.1 μM): 0% | HCT-116 5 Inhibition at 0.25 μM (HCT-116 cell line; HCT-116 cells): 47

CDK2 % Inhibition at 0.03 μM (CDK2/Cyclin A; [2]): −2% | CDK4 % Inhibition at 0.03 μM [1, 2]: 35%
SMILES: CCCCCCOc1ccc(C(=O)N2CCC(Nc3nc(N)c(C(=O)c4c(F)cccc4F)s3)CC2)cc1 [Example Q31]
HCT-116 % Inhibition at 0.1 μM (HCT-116 cell line; [3]): 8% | HCT-116 % Inhibition at 0.25 μM (HCT-116 cell line; HCT-116, Table 4, 0.25 µM): 41%

CDK2 % Inhibition at 0.03 μM (CDK2/Cyclin A; at 0.03 μM): −13% | CDK4 % Inhibition at 0.03 μM ([1]; at 0.03 μM): −27%
SMILES: Nc1nc(NC2CCN(C(=O)C3(c4ccccc4)CCCC3)CC2)sc1C(=O)c1c(F)cccc1F [Example R95]
HCT-116 % Inhibition at 0.1 μM (HCT-116 cell line; HCT-116 cells, at 0.1 μM): 0% | HCT-116 5 Inhibition at 0.25 μM (HCT-116 cell line; HCT-116 cells): 38

CDK2 % Inhibition at 0.03 μM (CDK2/Cyclin A; 0.03 μM compound, Table 4): 30% | CDK4 % Inhibition at 0.03 μM ([1]; 0.03 μM compound, Table 4): 57%
SMILES: Nc1nc(NC2CCN(C(=O)c3ccccc3F)CC2)sc1C(=O)c1c(F)cccc1F [Example Q11]
HCT-116 % Inhibition at 0.1 μM (HCT-116 cell line; [3]): 7% | HCT-116 % Inhibition at 0.25 μM (HCT-116 cell line; HCT-116, Table 4): 43%

CDK2 % Inhibition at 0.03 μM (CDK2/Cyclin A; at 0.03 μM): 29% | CDK4 % Inhibition at 0.03 μM ([1]; at 0.03 μM): 35%
SMILES: Nc1nc(NC2CCN(C(=O)c3ccc(Oc4cc(Cl)cc(Cl)c4)o3)CC2)sc1C(=O)c1c(F)cccc1F [Example R69]
HCT-116 % Inhibition at 0.1 μM (HCT-116 cell line; HCT-116 cells, at 0.1 μM): 0% | HCT-116 5 Inhibition at 0.25 μM (HCT-116 cell line; HCT-116 cells): 41

CDK2 % Inhibition at 0.03 μM (CDK2/Cyclin A; at 0.03 μM): 22% | CDK4 % Inhibition at 0.03 μM ([1]; at 0.03 μM): 47%
SMILES: CCc1ccc(C(=O)N2CCC(Nc3nc(N)c(C(=O)c4c(F)cccc4F)s3)CC2)cc1 [Example R157]
HCT-116 % Inhibition at 0.1 μM (HCT-116 cell line; HCT-116 cells, at 0.1 μM): 0% | HCT-116 5 Inhibition at 0.25 μM (HCT-116 cell line; HCT-116 cells): 42

Second part, the compound before the results:

SMILES: CN1CC[C@H](c2ccc(S(=O)(=O)N3CCC(Nc4nc(N)c(C(=O)c5c(F)cccc5F)s4)CC3)cc2)C1 [Example F52, (4-Amino-2-{1-[4-(1-methyl-pyrrolidin-3R-yl)-benzenesulfonyl]-piperidin-4-ylamino}-thiazol-5-yl)-(2,6-difluoro-phenyl)-methanone]
Ki (CDK2/Cyclin A): 1 nM | IC50 (HCT-116 cell line; first HCT-116 column (c4)): 93 nM | IC50 (HCT-116 cell line; second HCT-116 column (c5)): 500 nM | Ki [1]: 0.52 nM

SMILES: Nc1nc(NC2CCN(C(=O)Nc3ccc4ccccc4c3)CC2)sc1C(=O)c1c(F)cccc1F [Example O54]
CDK2 % Inhibition At 0.03 μM (CDK2/Cyclin A; 0.03 μM compound): 34% | HCT-116 % Inhibition at 0.25 μM (HCT-116 cell line; HCT-116, Table 2): 46% | CDK4 % Inhibition at 0.03 μM ([1]; 0.03 μM compound, Table 2): 15%

SMILES: Cc1cc(C)cc(C(=O)N2CCC(Nc3nc(N)c(C(=O)c4c(F)cccc4F)s3)CC2)c1 [Example D14, {4-Amino-2-[1-(3,5-dimethyl-benzoyl)-piperidin-4-ylamino]-thiazol-5-yl}-(2,6-difluoro-phenyl)-methanone]
Ki (CDK2/Cyclin A): 120 nM | IC50 (HCT-116 cell line; first HCT-116 column (c4)): 14 nM | IC50 (HCT-116 cell line; second HCT-116 column (c5)): 41 nM | Ki [1]: 19 nM

SMILES: Nc1nc(NC2CCN(S(=O)(=O)c3cnc(Cl)nc3)CC2)sc1C(=O)c1c(F)cccc1F [Example F47]
Ki (CDK2/Cyclin A): 0.27 nM | IC50 (HCT-116 cell line; first HCT-116 column (c4)): 900 nM | IC50 (HCT-116 cell line; second HCT-116 column (c5)): 2300 nM | Ki [1]: 0.69 nM

SMILES: Nc1nc(NC2CCN(C(=O)c3ccno3)CC2)sc1C(=O)c1c(F)cccc1F [Example C10, 1-{4-Amino-2-[1-(1-isoxazol-5-yl-methanoyl)-piperidin-4-ylamino]-thiazol-5-yl}1-(2,6-difluoro-phenyl)-methanone]
Ki (CDK2/Cyclin A): 39 nM | IC50 (HCT-116 cell line; first HCT-116 column (c4)): 750 nM | IC50 (HCT-116 cell line; second HCT-116 column (c5)): 2100 nM | Ki [1]: 22 nM

SMILES: COC(=O)c1cc(NC(=O)N2CCC(Nc3nc(N)c(C(=O)c4c(F)cccc4F)s3)CC2)cc(C(=O)OC)c1 [Example O59]
CDK2 % Inhibition At 0.03 μM (CDK2/Cyclin A; 0.03 μM compound): 28% | HCT-116 % Inhibition at 0.25 μM (HCT-116 cell line; HCT-116, Table 2): 32% | CDK4 % Inhibition at 0.03 μM ([1]; 0.03 μM compound, Table 2): 7%

SMILES: Nc1nc(NC2CCN(S(=O)(=O)c3ccc(CN4CCOCC4)cc3)CC2)sc1C(=O)c1c(F)cccc1F [Example J8, 1-{4-Amino-2-[1-(4-morpholin4-ylmethyl-benzenzsulfonyl)-piperidin-4-ylamino]-thiazol-5-yl}-1-(2,6-difluoro-phenyl)-methanone Hydrochloride Salt]
Ki (CDK2/Cyclin A): 1.3 nM | IC50 (HCT-116 cell line; first HCT-116 column (c4)): 98 nM | IC50 (HCT-116 cell line; second HCT-116 column (c5)): 400 nM | Ki [1]: 1.2 nM

SMILES: Nc1nc(NC2CCN(S(=O)(=O)CCN(CC3CC3)CC3CC3)CC2)sc1C(=O)c1c(F)cccc1F [Example K54, (4-Amino-2-{1-[2-(bis-cyclopropylmethyl-amino)-ethanesulfonyl]-piperidin-4-ylamino}-thiazol-5-yl)-(2,6-difluoro-phenyl)-methanone]
Ki (CDK2/Cyclin A): 5 nM | IC50 (HCT-116 cell line; first HCT-116 column (c4)): 280 nM | IC50 (HCT-116 cell line; second HCT-116 column (c5)): 800 nM | Ki [1]: 1.3 nM
